Measured values reported in US6358885B1, “Substituted phenylheterocyclic herbicides” (Mississippi State University, priority 1992, dated 2002).

Legend:
[1] = tested on: rice; experiment: Test B preemergence/postemergence greenhouse plant response rating 0 to 10; assay type: in vivo, Oryza sativa; details: 0 to 10 scale
How it was run: (§1)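 Test chemicals were sprayed onto freshly planted seed and, concurrently, onto young plants between the one and four leaf stage. After a twelve- to sixteen-day greenhouse period, each species was visually compared with untreated controls.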

[2] = tested on: umbrella sedge; experiment: Test C flood test plant response rating 0 to 100; assay type: in vivo, Cyperus difformis
How it was run: (§2)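 Compounds in non-phytotoxic solvent applied preemergence to sandy loam one day after planting, postemergence at the 1–4 leaf stage, or to ~2.5 cm floodwater over silt loam.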

[3] = tested on: rape; experiment: Test B preemergence/postemergence greenhouse plant response rating 0 to 10; assay type: in vivo, Brassica napus; details: 0 to 10 scale
How it was run: as §1

[4] = tested on: cocklebur; experiment: as above; assay type: in vivo, Xanthium pensylvanicum; details: 0 to 10 scale
How it was run: as §1

[5] = tested on: sorghum; experiment: Test C preemergence/postemergence greenhouse plant response rating 0 to 100; assay type: in vivo, Sorghum bicolor
How it was run: (§3)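 Compounds in non-phytotoxic solvent went onto sandy loam before emergence (seeded one day earlier) or onto plants at the one-to-four leaf stage. Duck salad was treated via flood water (~2.5 cm, maintained) over silt loam.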

[6] = tested on: blackgrass; experiment: Test B preemergence/postemergence greenhouse plant response rating 0 to 10; assay type: in vivo, Alopecurus myosuroides; details: 0 to 10 scale
How it was run: as §1

[7] = tested on: barnyardgrass; experiment: Test C flood test plant response rating 0 to 100; assay type: in vivo, Echinochloa crus-galli
How it was run: as §2

[8] = tested on: rice; experiment: Test C flood test plant response rating 0 to 100; assay type: in vivo, Oryza sativa
How it was run: as §2

[9] = tested on: corn; experiment: Test C preemergence/postemergence greenhouse plant response rating 0 to 100; assay type: in vivo, Zea mays; details: for Plant response rating, Corn: 62 g/ha, 0 to 100 scale
How it was run: as §3

[10] = tested on: morningglory; experiment: as above; assay type: in vivo, Ipomoea hederacea; details: for Plant response rating, Morningglory: 62 g/ha, 0 to 100 scale
How it was run: as §3

[11] = tested on: barley; experiment: Test B preemergence/postemergence greenhouse plant response rating 0 to 10; assay type: in vivo, Hordeum vulgare; details: 0 to 10 scale
How it was run: as §1

[12] = tested on: purple nutsedge; experiment: as above; assay type: in vivo, Cyperus rotundus; details: 0 to 10 scale
How it was run: as §1

[13] = tested on: crabgrass; experiment: as above; assay type: in vivo, Digitaria spp.; details: 0 to 10 scale
How it was run: as §1

[14] = tested on: pigweed; experiment: Test C preemergence/postemergence greenhouse plant response rating 0 to 100; assay type: in vivo, Amaranthusretroflexus; details: for Plant response rating Pigweed: 62 g/ha, 0 to 100 scale
How it was run: as §3

[15] = tested on: lambsquarters; experiment: Test B preemergence/postemergence greenhouse plant response rating 0 to 10; assay type: in vivo, Chenopodium album; details: 0 to 10 scale
How it was run: as §1

[16] = tested on: sugar beet; experiment: as above; assay type: in vivo, Beta vulgaris; details: 0 to 10 scale
How it was run: as §1

[17] = tested on: soybean; experiment: as above; assay type: in vivo, Glycine max; details: 0 to 10 scale
How it was run: as §1

[18] = tested on: bedstraw; experiment: as above; assay type: in vivo, Galium aparine; details: 0 to 10 scale
How it was run: as §1

[19] = POSTEMERGENCE section, flood test, Rate 1 g/ha
[20] = POSTEMERGENCE section, flood test, Rate 4 g/ha
[21] = Rate 16 g/ha, under POSTEMERGENCE head (flood test species)
[22] = flood test species listed under POSTEMERGENCE, 62 g/ha, 0 to 100 scale

CC(C)Oc1cc(-c2nn3c(c2Br)CCCC3)c(F)cc1Cl [Compound 38]
90: Plant response rating (0 to 100), Pigweed ([14]; Rate 16 g/ha, PREEMERGENCE)
95: Plant response rating, Morningglory ([10]; POSTEMERGENCE) | Plant response rating (0 to 100), Morningglory ([10]; Rate 16 g/ha, POSTEMERGENCE)
7: Plant response rating, Blackgrass ([6]; POSTEMERGENCE, Rate 200 g/ha) | Plant response rating, Soybean ([17]; Rate 200 g/ha, POSTEMERGENCE) | Plant response rating, Bedstraw ([18]; Rate 200 g/ha, PREEMERGENCE)
8: Plant response rating, Rape ([3]; POSTEMERGENCE, Rate 50 g/ha) | Plant response rating, Rape ([3]; PREEMERGENCE, Rate 50 g/ha) | Plant response rating, Rape ([3]; Rate 200 g/ha, PREEMERGENCE) | Plant response rating, Cocklebur ([4]; POSTEMERGENCE, Rate 50 g/ha) | Plant response rating, Crabgrass ([13]; Rate 200 g/ha, PREEMERGENCE) | Plant response rating, Sugar beet ([16]; PREEMERGENCE, Rate 50 g/ha)
50: Plant response rating Umbrella sedge [2, 22] | Plant response rating, Corn ([9]; POSTEMERGENCE)
10: Plant response rating, Rape ([3]; Rate 200 g/ha, POSTEMERGENCE) | Plant response rating, Cocklebur ([4]; POSTEMERGENCE, Rate 200 g/ha) | Plant response rating (0 to 100), Sorghum ([5]; Rate 16 g/ha, PREEMERGENCE) | Plant response rating (0 to 100), Barnyardgrass 2 [7, 19] | Plant response rating (0 to 100), Rice Japonica [8, 20] | Plant response rating (0 to 100), Rice Japonica [8, 21] | Plant response rating (0 to 100), Corn ([9]; POSTEMERGENCE, Rate 1 g/ha) | Plant response rating (0 to 100), Pigweed ([14]; POSTEMERGENCE, Rate 1 g/ha) | Plant response rating, Lambsquarter ([15]; POSTEMERGENCE, Rate 50 g/ha) | Plant response rating, Lambsquarter ([15]; PREEMERGENCE, Rate 50 g/ha) | Plant response rating, Lambsquarter ([15]; Rate 200 g/ha, POSTEMERGENCE) | Plant response rating, Lambsquarter ([15]; Rate 200 g/ha, PREEMERGENCE) | Plant response rating, Sugar beet ([16]; POSTEMERGENCE, Rate 50 g/ha) | Plant response rating, Sugar beet ([16]; Rate 200 g/ha, POSTEMERGENCE) | Plant response rating, Sugar beet ([16]; Rate 200 g/ha, PREEMERGENCE) | Plant response rating, Bedstraw ([18]; POSTEMERGENCE, Rate 200 g/ha)
1: Plant response rating, Blackgrass ([6]; PREEMERGENCE, Rate 50 g/ha) | Plant response rating, Blackgrass ([6]; Rate 200 g/ha, PREEMERGENCE) | Plant response rating, Barley ([11]; Rate 200 g/ha, PREEMERGENCE)
6: Plant response rating, Rice ([1]; Rate 200 g/ha, POSTEMERGENCE) | Plant response rating, Barley ([11]; POSTEMERGENCE, Rate 200 g/ha) | Plant response rating, Crabgrass ([13]; POSTEMERGENCE, Rate 200 g/ha)
3: Plant response rating, Blackgrass ([6]; POSTEMERGENCE, Rate 50 g/ha) | Plant response rating, Nutsedge ([12]; POSTEMERGENCE, Rate 50 g/ha)
5: Plant response rating, Rice ([1]; POSTEMERGENCE, Rate 50 g/ha) | Plant response rating, Cocklebur ([4]; Rate 200 g/ha, PREEMERGENCE) | Plant response rating, Crabgrass ([13]; POSTEMERGENCE, Rate 50 g/ha) | Plant response rating, Soybean ([17]; POSTEMERGENCE, Rate 50 g/ha)
4: Plant response rating, Barley ([11]; POSTEMERGENCE, Rate 50 g/ha) | Plant response rating, Nutsedge ([12]; Rate 200 g/ha, POSTEMERGENCE) | Plant response rating, Soybean ([17]; Rate 200 g/ha, PREEMERGENCE)
2: Plant response rating, Rice ([1]; Rate 200 g/ha, PREEMERGENCE)
0: Plant response rating, Rice ([1]; PREEMERGENCE, Rate 50 g/ha) | Plant response rating (0 to 100), Umbrella sedge [2, 19] | Plant response rating (0 to 100), Umbrella sedge [2, 20] | Plant response rating, Cocklebur ([4]; PREEMERGENCE, Rate 50 g/ha) | Plant response rating (0 to 100), Sorghum ([5]; PREEMERGENCE, Rate 1 g/ha) | Plant response rating (0 to 100), Sorghum ([5]; PREEMERGENCE, Rate 4 g/ha) | Plant response rating (0 to 100), Rice Japonica [8, 19] | Plant response rating, Corn ([9]; PREEMERGENCE) | Plant response rating (0 to 100), Corn ([9]; PREEMERGENCE, Rate 1 g/ha) | Plant response rating (0 to 100), Corn ([9]; PREEMERGENCE, Rate 4 g/ha) | Plant response rating (0 to 100), Corn ([9]; Rate 16 g/ha, PREEMERGENCE) | Plant response rating (0 to 100), Morningglory ([10]; PREEMERGENCE, Rate 1 g/ha) | Plant response rating (0 to 100), Morningglory ([10]; PREEMERGENCE, Rate 4 g/ha) | Plant response rating (0 to 100), Morningglory ([10]; Rate 16 g/ha, PREEMERGENCE) | Plant response rating, Barley ([11]; PREEMERGENCE, Rate 50 g/ha) | Plant response rating, Nutsedge ([12]; PREEMERGENCE, Rate 50 g/ha) | Plant response rating, Nutsedge ([12]; Rate 200 g/ha, PREEMERGENCE) | Plant response rating, Crabgrass ([13]; PREEMERGENCE, Rate 50 g/ha) | Plant response rating (0 to 100), Pigweed ([14]; PREEMERGENCE, Rate 1 g/ha) | Plant response rating (0 to 100), Pigweed ([14]; PREEMERGENCE, Rate 4 g/ha) | Plant response rating, Soybean ([17]; PREEMERGENCE, Rate 50 g/ha) | Plant response rating, Bedstraw ([18]; PREEMERGENCE, Rate 50 g/ha)
30: Plant response rating (0 to 100), Sorghum ([5]; POSTEMERGENCE, Rate 4 g/ha) | Plant response rating Rice Japonica [8, 22] | Plant response rating (0 to 100), Morningglory ([10]; POSTEMERGENCE, Rate 4 g/ha) | Plant response rating (0 to 100), Pigweed ([14]; POSTEMERGENCE, Rate 4 g/ha)
20: Plant response rating (0 to 100), Umbrella sedge [2, 21] | Plant response rating (0 to 100), Sorghum ([5]; POSTEMERGENCE, Rate 1 g/ha) | Plant response rating (0 to 100), Barnyardgrass 2 ([7]; Rate 4 g/ha, under POSTEMERGENCE head (flood test species)) | Plant response rating (0 to 100), Corn ([9]; Rate 4 g/ha, POSTEMERGENCE) | Plant response rating (0 to 100), Morningglory ([10]; POSTEMERGENCE, Rate 1 g/ha) | Plant response rating, Morningglory ([10]; PREEMERGENCE)
100: Plant response rating Barnyardgrass 2 [7, 22] | Plant response rating Pigweed ([14]; POSTEMERGENCE) | Plant response rating Pigweed ([14]; PREEMERGENCE) | Plant response rating (0 to 100), Pigweed ([14]; Rate 16 g/ha, POSTEMERGENCE)
60: Plant response rating (0 to 100), Sorghum ([5]; Rate 16 g/ha, POSTEMERGENCE)
40: Plant response rating (0 to 100), Corn ([9]; Rate 16 g/ha, POSTEMERGENCE)
75: Plant response rating (0 to 100), Barnyardgrass 2 [7, 21]
70: Plant response rating, Sorghum ([5]; POSTEMERGENCE, 62 g/ha, 0 to 100 scale)
